Experimental data as given in publication PMC3434693 (Drug and chemical toxicology, 2012).

Test system: C. elegans N2 Bristol strain
Test: C. elegans fecundity assay
Format: in vivo, Caenorhabditis elegans
Conditions: estimated concentration threshold, refined threshold-exposure stage; 6–7 days

ECT (C. elegans): 470 to 490 µM
Structure (SMILES): Cn1c(C(=O)NCCCc2c[nH]c(N)n2)cc(Br)c1Br [DHS, dihydrosventrin]
